Source: patent publication US20180164317A1, “METHOD FOR STRATIFICATION OF MELANOMA PATIENTS BY DETERMINATION OF OXYGEN CONSUMPTION, PPARGC1A, PPARGC1B AND MITF LEVELS” (Bayer Pharma Aktiengesellschaft, priority 2015, published 2018)

Assays:
[1] = test system: SK-MEL-2; experiment: Basal oxygen consumption rate (OCR), XF96 extracellular flux analyzer; type: cell-based, human; conditions: SK-MEL-2 cells; 1 μM, 20 h pre-incubation; FIG. 4
Experimental: (§1) The OCR in G-361, CHL-1, RPMI-7951 and SK-MEL-2 melanoma cells was measured using the XF96 extracellular flux analyzer (Seahorse Bioscience) under standard conditions and after pre-incubation with 1 μM BAY 123 or JQ1 inhibitor for 20 h. Baseline mitochondrial function and mitochondrial stress response were measured by OCR using the XF Mito Stress Test Kit with an XF96 extracellular flux analyzer (Seahorse Bioscience). […] The drug injection ports of the XF96 Assay Cartridge were loaded with assay reagents at a final concentration of 1 μM oligomycin (ATP synthase inhibitor), 0.5 μM FCCP (ionophore and mitochondrial uncoupler which disrupts proton gradient and ATP synthesis), 1 μM Rotenone (mitochondrial complex I inhibitor) and 1 μM Antimycin A (mitochondrial complex III inhibitor).
(§2) Briefly, cells treated with 1 μM BAY 123 or JQ1 inhibitor for 20 h were seeded in quadruplicate at equal densities (20,000-30,000 cells/well) into XF96 tissue culture plates (Seahorse Bioscience). Cell culture medium was changed 12 hours after cell seeding into unbuffered DMEM (8.3 g/l DMEM [Sigma], 2 mM Glutamax [Invitrogen] 5 mM Glucose [Sigma], 1.85 g/l NaCl [Sigma], adjusted to pH 7.4 with NaOH). Real-time measurements of OCR in […] in culture medium were conducted. OCR was measured over time at baseline and following consecutive injections of 1 μM Oligomycin, 0.5 μM FCCP and a mix of 1 μM Rotenone+1 μM Antimycin A. The basal mitochondrial OCR was calculated. The OCR values were normalized to cell numbers plated. To this end, the cells were stained using Cyquant (Life technologies) and fluorescence measurements were made using a microplate reader with excitation at 485 nm and emission detection at 530 nm [Tecan].

[2] = test system: G-361; experiment: as above; type: cell-based, human; conditions: G-361 cells; 1 μM, 20 h pre-incubation; FIG. 4
Experimental: as §1, §2

[3] = test system: CHL-1; experiment: as above; type: cell-based, human; conditions: CHL-1 cells; 1 μM, 20 h pre-incubation; FIG. 4
Experimental: as §1, §2

[4] = test system: HMCB; experiment: GI50 determination, cell viability (Alamar Blue or Cell Titer Glo); type: cell-based; conditions: Homo sapiens; HMCB cells; cell viability measured at days 3, 5 and 7; triplicate experiments
Experimental: (§3) COLO-792, SK-MEL-2, SK-MEL-28, IPC-298 and MEL-HO cells were cultured in RPMI media supplemented with 10% heat-inactivated and filtered FCS (hFCS). CHL-1, Hs852.T, G-361, RPMI-7951 and A-431 cells were cultured in DMEM media supplemented with 10% hFCS. HMCB cells were grown in MEM Earle's media containing 10% hFCS, 1 mM NaPyruvate, non-essential amino acids and 1 mM HEPES. Penicillin (at 50 I.U./mL), streptomycin (at 50 μg/mL), and L-glutamine (at 2 mM) or stable glutamine (supplied with the media) were additional ingredients in all culture media. All cells were grown in an incubator at 37° C. with 5% carbon dioxide.
(§4) Cells were counted and distributed to 96-well plates, with 1000-5000 cells per well. Each plate also contained wells with media alone for background measurements. Appropriate dilutions of BAY 123 or JQ1 were made in media in a titration series. When adherent cells were fully attached, media was removed and replaced with media containing BAY 123, JQ1, or DMSO as a control. Alternatively, appropriate volumes of BAY 123, JQ1 or DMSO were added to media using a dispenser (HP D300, Tecan).
(§5) Cell viability was measured at days 3, 5, and 7, with Alamar Blue (LifeTechnologies) staining and fluorescence detection (excitation 530nm, emission 590nm) in a microplate reader. Alternatively, Cell Titer Glo (Promega) was used, followed by luminescence detection. GI50 values were calculated from triplicate experiments using GraphPad prism software, using curves from plots of fluorescence or luminescence intensity vs. BAY 123 or JQ1 concentration in each cell line. […] Cell lines with a GI50 below 600 nM were defined as sensitive to BET inhibition.

[5] = test system: SK-MEL-2; experiment: as above; type: cell-based; conditions: Homo sapiens; SK-MEL-2 cells; cell viability measured at days 3, 5 and 7; triplicate experiments
Experimental: as §3, §4, §5

[6] = test system: A-431; experiment: as above; type: cell-based; conditions: Homo sapiens; A-431 cells; cell viability measured at days 3, 5 and 7; triplicate experiments
Experimental: as §3, §4, §5

[7] = test system: COLO-792; experiment: as above; type: cell-based; conditions: Homo sapiens; COLO-792 cells; cell viability measured at days 3, 5 and 7; triplicate experiments
Experimental: as §3, §4, §5

[8] = test system: G-361; experiment: as above; type: cell-based; conditions: Homo sapiens; G-361 cells; cell viability measured at days 3, 5 and 7; triplicate experiments
Experimental: as §3, §4, §5

[9] = test system: IPC-298; experiment: as above; type: cell-based; conditions: Homo sapiens; IPC-298 cells; cell viability measured at days 3, 5 and 7; triplicate experiments
Experimental: as §3, §4, §5

[10] = test system: Hs 852.T; experiment: as above; type: cell-based; conditions: Homo sapiens; Hs 852.T cells; cell viability measured at days 3, 5 and 7; triplicate experiments
Experimental: as §3, §4, §5

[11] = test system: CHL-1; experiment: as above; type: cell-based; conditions: Homo sapiens; CHL-1 cells; cell viability measured at days 3, 5 and 7; triplicate experiments
Experimental: as §3, §4, §5

[12] = test system: MEL-HO; experiment: as above; type: cell-based; conditions: Homo sapiens; MEL-HO cells; cell viability measured at days 3, 5 and 7; triplicate experiments
Experimental: as §3, §4, §5

[13] = test system: SK-MEL-28; experiment: as above; type: cell-based; conditions: Homo sapiens; SK-MEL-28 cells; cell viability measured at days 3, 5 and 7; triplicate experiments
Experimental: as §3, §4, §5

[14] = test system: RPMI-7951; experiment: as above; type: cell-based; conditions: Homo sapiens; RPMI-7951 cells; cell viability measured at days 3, 5 and 7; triplicate experiments
Experimental: as §3, §4, §5

[15] = test system: melanoma cell lines (G-361, CHL-1, RPMI-7951, SK-MEL-2); experiment: Basal OCR, marker positive versus negative melanoma cell lines, XF96 analyzer; type: cell-based, human; conditions: 1 μM, 20 h treatment
Experimental: as §1
Briefly, cells treated with 1 μM BAY 123 or JQ1 inhibitor for 20 h were seeded in quadruplicate at equal densities (20,000-30,000 cells/well) into XF96 tissue culture plates (Seahorse Bioscience). […] OCR was measured over time at baseline and following consecutive injections of 1 μM Oligomycin, 0.5 μM FCCP and a mix of 1 μM Rotenone+1 μM Antimycin A. The basal mitochondrial OCR was calculated. […] To this end, the cells were stained using Cyquant (Life technologies) and fluorescence measurements were made using a microplate reader with excitation at 485 nm and emission detection at 530 nm [Tecan].

[16] = test system: COLO-792; experiment: Basal oxygen consumption rate (OCR), XF96 extracellular flux analyzer; type: cell-based, human; conditions: COLO-792 cells; FIG. 4

In the case of `Cc1sc2c(c1C)C(c1ccc(Cl)cc1)=NC(CC(=O)OC(C)(C)C)c1nnc(C)n1-2` (racemic) [JQ1, [(R,S)-4-(4-Chlorophenyl)-2,3,9-trimethyl-6H-1-thia-5,7,8,9a-tetraaza-cyclopenta[e]azulen-6-yl]-acetic acid tert-butyl ester], the “basal OCR with versus without treatment” value [1] is reported as “Reduction of basal OCR”, the “basal OCR with versus without treatment” value [2] is reported as “Reduction of basal OCR” and the “basal OCR with versus without treatment” value [3] is reported as “Reduction of basal OCR”. The GI50 [4] was 0.33 µM, the GI50 [5] was over 20 µM and the GI50 [6] was 0.72 µM. It also gave a GI50 [7] of 0.05 µM, a GI50 [8] of 0.24 µM and a GI50 [9] of 0.06 µM. It also gave a GI50 [10] of 7.57 µM, a GI50 [11] of 0.06 µM and a GI50 [12] of 0.19 µM. The GI50 [13] was 1.76 µM, the GI50 [14] was 1.46 µM and the “decrease of basal OCR in PPARGC1A, PPARGC1B, MITF positive melanoma (G-361, CHL-1) compared to negative melanoma cell lines (RPMI-7951, SK-MEL-2)” value [15] was “decreased more dramatically”. The “basal OCR with versus without treatment” value [16] was “Reduction of basal OCR”.
For `CNC(=O)N1N=C(c2ccc(N3CCN(C)CC3)cc2)c2cc(OC)c(OC)cc2C[C@@H]1C` [BAY 123, (4S)-7,8-dimethoxy-N,4-dimethyl-1-[4-(4-methylpiperazin-1-yl)phenyl]-4,5-dihydro-3H-2,3-benzodiazepine-3-carboxamide], the “basal OCR with versus without treatment” value [1] was “Reduction of basal OCR”, the “basal OCR with versus without treatment” value [2] was “Reduction of basal OCR” and the “basal OCR with versus without treatment” value [3] was “Reduction of basal OCR”. The GI50 [4] was 0.57 µM, the GI50 [5] was over 20 µM and the GI50 [6] was 0.93 µM. The GI50 [7] was 0.08 µM, the GI50 [8] was 0.25 µM and the GI50 [9] was 0.15 µM. It also gave a GI50 [10] of 4.44 µM, a GI50 [11] of 0.07 µM and a GI50 [12] of 0.47 µM. The GI50 [13] was 1.26 µM, the GI50 [14] was 2.18 µM and the “decrease of basal OCR in PPARGC1A, PPARGC1B, MITF positive melanoma (G-361, CHL-1) compared to negative melanoma cell lines (RPMI-7951, SK-MEL-2)” value [15] was “decreased more dramatically”. For the same molecule, the “basal OCR with versus without treatment” value [16] was “Reduction of basal OCR”.
